Assay results reported in ChEMBL document CHEMBL5512637, “Development of Membrane-Targeting Fluorescent 2-Phenyl-1H-phenanthro[9,10-d]imidazole-Antimicrobial Peptide Mimic Conjugates against Methicillin-Resistant Staphylococcus aureus” (J Med Chem, 2024).
Calls of active or inactive are those of the source.

Experiments:
Staphylococcus aureus [1] = assay: Antibacterial activity against methicillin-resistant Staphylococcus aureus clinical isolate M-1 incubated for 16 to 18 hrs CLSI based by microbroth dilution assay; assay type: functional; details: time 16-18 hrs
Staphylococcus aureus [2] = assay: Antibacterial activity against methicillin-resistant Staphylococcus aureus clinical isolate M-6 incubated for 16 to 18 hrs CLSI based by microbroth dilution assay; assay type: functional; details: time 16-18 hrs
Staphylococcus aureus [3] = assay: Antibacterial activity against methicillin-resistant Staphylococcus aureus clinical isolate M-7 incubated for 16 to 18 hrs CLSI based by microbroth dilution assay; assay type: functional; details: time 16-18 hrs
Staphylococcus aureus [4] = assay: Bactericidal activity against Staphylococcus aureus ATCC 29213 by time kill assay; assay type: functional, organism-based
Staphylococcus aureus [5] = assay: Bactericidal activity against methicillin-resistant Staphylococcus aureus clinical isolate M-4 by time kill assay; assay type: functional, organism-based
Staphylococcus aureus [6] = assay: Bactericidal activity against Staphylococcus aureus ATCC 29213 at 4 times MIC incubated for 2 hrs by time kill assay relative to control; assay type: functional
Staphylococcus aureus [7] = assay: Bactericidal activity against methicillin-resistant Staphylococcus aureus clinical isolate M-4 at 4 times MIC incubated for 6 hrs by time kill assay relative to control; assay type: functional
Staphylococcus aureus [8] = assay: Induction of resistance development in Staphylococcus aureus ATCC 29213 assessed as fold increase in MIC at MIC measured after 17 passages relative to control; assay type: functional
Staphylococcus aureus [9] = assay: Bactericidal activity against Staphylococcus aureus ATCC 29213 assessed as fold increase in fluorescence intensity at MIC incubated for 180 mins relative to control; assay type: functional; details: 3 h
Staphylococcus aureus [10] = assay: Antibacterial activity against Staphylococcus aureus ATCC 29213 at 1 ug/ml in absence of exogenous DNA; assay type: functional, organism-based; details: dose 1.0 µg/ml
Staphylococcus aureus [11] = assay: Disruption of cell membrane in methicillin-resistant Staphylococcus aureus clinical isolate M-4 assessed as rough cell membrane at 8 times MIC incubated for 1 hr by SEM analysis; assay type: functional, organism-based
Staphylococcus aureus [12] = assay: Disruption of cell membrane in methicillin-resistant Staphylococcus aureus clinical isolate M-4 assessed as wrinkled cell membrane at 8 times MIC incubated for 1 hr by SEM analysis; assay type: functional, organism-based
Staphylococcus aureus [13] = assay: Disruption of cell membrane in methicillin-resistant Staphylococcus aureus clinical isolate M-4 assessed as cell membrane rupture at 8 times MIC incubated for 1 hr by SEM analysis; assay type: functional, organism-based
Staphylococcus aureus [14] = assay: Disruption of cell membrane in methicillin-resistant Staphylococcus aureus clinical isolate M-4 assessed as increase in fluorescence intensity measured for 30 mins by DiSC3(5) dye based analysis; assay type: functional, organism-based; details: dose 8-32 µg/ml
Staphylococcus aureus [15] = assay: Disruption of cell membrane in methicillin-resistant Staphylococcus aureus clinical isolate M-4 assessed as fold increase in fluorescence intensity at 32 ug/ml measured after 20 mins by DiSC3(5) dye based analysis relative to control; assay type: functional; details: dose 32 µg/ml
Staphylococcus aureus [16] = assay: Disruption of cell membrane in methicillin-resistant Staphylococcus aureus clinical isolate M-4 assessed as decrease in blue fluorescence at 4 ug/ml incubated for 4 hrs by DAPI/PI staining based laser confocal microscopy; assay type: functional, organism-based; details: dose 4.0 µg/ml
Staphylococcus aureus [17] = assay: Disruption of cell membrane in methicillin-resistant Staphylococcus aureus clinical isolate M-4 assessed as increase in red fluorescence at 4 ug/ml incubated for 4 hrs by DAPI/PI staining based laser confocal microscopy; assay type: functional, organism-based; details: dose 4.0 µg/ml
Staphylococcus aureus [18] = assay: Disruption of cell membrane in methicillin-resistant Staphylococcus aureus clinical isolate M-4 assessed as increase in red fluorescence incubated for 2 hrs by SYTO9/PI staining based flow cytometry; assay type: functional, organism-based; details: dose 4-64 µg/ml
Staphylococcus aureus [19] = assay: Disruption of cell membrane in methicillin-resistant Staphylococcus aureus clinical isolate M-4 assessed as increase in red fluorescence at 32 ug/ml incubated for 2 hrs by SYTO9/PI staining based flow cytometry relative to control; assay type: functional; details: dose 32 µg/ml
Staphylococcus aureus [20] = assay: Disruption of cell membrane in methicillin-resistant Staphylococcus aureus clinical isolate M-4 assessed as DNA leakage at 1 to 8 times MIC incubated for 4 hrs by microspectrophotometry; assay type: functional, organism-based
Staphylococcus aureus [21] = assay: Disruption of cell membrane in methicillin-resistant Staphylococcus aureus clinical isolate M-4 assessed as protein leakage at 1 to 8 times MIC incubated for 4 hrs by BCA assay; assay type: functional, organism-based
Staphylococcus aureus [22] = assay: Disruption of cell membrane in methicillin-resistant Staphylococcus aureus clinical isolate M-4 assessed as fold increase in intracellular ROS level at 32 ug/ml incubated for 1 hr by DCFH-DA dye based analysis relative to control; assay type: functional; details: dose 32 µg/ml
Staphylococcus aureus [23] = assay: Antibacterial activity against methicillin-resistant Staphylococcus aureus clinical isolate M-4 upto 128 ug/ml incubated for 16 to 18 hrs in presence of phosphatidylethanolamine by broth dilution method; assay type: functional, organism-based; details: dose <= 128.0 µg/ml, time 16-18 hrs
Staphylococcus aureus [24] = assay: Antibacterial activity against methicillin-resistant Staphylococcus aureus clinical isolate M-4 upto 128 ug/ml incubated for 16 to 18 hrs in presence of cardiolipin by broth dilution method; assay type: functional, organism-based; details: dose <= 128.0 µg/ml, time 16-18 hrs
[25] = Binding affinity to phosphatidylglycerol (unknown origin) assessed as dissociation constant by ITC analysis
[26] = Toxicity in KM mouse assessed as animal abnormality at 5 to 80 mg/kg, sc measured for 24 hrs; assay type: organism-based; details: in vivo, dose 5-80 mg/kg
[27] = Toxicity in KM mouse assessed as red swollen appearance of skin at administration site at 5 to 20 mg/kg, sc measured for 24 hrs; assay type: organism-based; details: in vivo, dose 5-20 mg/kg
[28] = Toxicity in KM mouse assessed as change in urea level at 20 mg/kg, sc measured after 24 hrs; assay type: organism-based; details: in vivo
[29] = Toxicity in KM mouse assessed as change in creatinine level at 20 mg/kg, sc measured after 24 hrs; assay type: organism-based; details: in vivo
[30] = Toxicity in KM mouse assessed as change in albumin level at 20 mg/kg, sc measured after 24 hrs; assay type: organism-based; details: in vivo
[31] = Toxicity in KM mouse assessed as change in mean corpuscular volume at 20 mg/kg, sc measured after 24 hrs; assay type: organism-based; details: in vivo
[32] = Toxicity in KM mouse assessed as change in platelet count at 20 mg/kg, sc measured after 24 hrs; assay type: organism-based; details: in vivo
[33] = Toxicity in KM mouse assessed as change in WBC count at 20 mg/kg, sc measured after 24 hrs; assay type: organism-based; details: in vivo
[34] = Toxicity in KM mouse assessed as histological abnormality in lungs at 20 mg/kg, sc measured after 24 hrs by H and E staining based analysis; assay type: organism-based; details: in vivo
Staphylococcus aureus [35] = assay: Antibacterial activity against methicillin-resistant Staphylococcus aureus clinical isolate M-4 infected in KM mouse assessed as decrease in abscesses in subcutaneous tissue at 5 to 10 mg/kg, sc measured after 24 hrs by H and E staining based analysis; assay type: functional, organism-based; details: dose 5-10 mg/kg
Staphylococcus aureus [36] = assay: Antibacterial activity against methicillin-resistant Staphylococcus aureus clinical isolate M-4 infected in KM mouse assessed as decrease in erythema in subcutaneous tissue at 5 to 10 mg/kg, sc measured after 24 hrs by H and E staining based analysis; assay type: functional, organism-based; details: dose 5-10 mg/kg
Staphylococcus aureus [37] = assay: Antibacterial activity against methicillin-resistant Staphylococcus aureus clinical isolate M-4 infected in KM mouse assessed as decrease in abnormality in skin area at 10 mg/kg, sc measured after 24 hrs by H and E staining based analysis; assay type: functional, organism-based
[38] = Toxicity in KM mouse infected with methicillin-resistant Staphylococcus aureus clinical isolate M-4 assessed as histopathological abnormality in heart at 5 to 10 mg/kg, sc measured after 24 hrs by H and E staining based analysis; assay type: organism-based; details: in vivo, dose 5-10 mg/kg

CCCCCNC(=O)C[N+](C)(C)CCCCn1c(-c2ccc(N(C)C)cc2)nc2c3ccccc3c3ccccc3c21.[Br-]
128: fold change (FC) (Staphylococcus aureus [8])
100%: Activity (Staphylococcus aureus [6]) | Activity (Staphylococcus aureus [7])
Non-Toxic: Activity [26] | Activity [27] | Activity [28] | Activity [29] | Activity [30] | Activity [31] | Activity [32] | Activity [33] | Activity [34] | Activity [38]
active: Activity (Staphylococcus aureus [4]) Dose-Dependent Effect | Activity (Staphylococcus aureus [5]) Dose-Dependent Effect | Activity (Staphylococcus aureus [10]) | Activity (Staphylococcus aureus [11]) | Activity (Staphylococcus aureus [12]) | Activity (Staphylococcus aureus [13]) | Activity (Staphylococcus aureus [14]) Dose-Dependent Effect | Activity (Staphylococcus aureus [16]) | Activity (Staphylococcus aureus [17]) | Activity (Staphylococcus aureus [18]) Dose-Dependent Effect | Activity (Staphylococcus aureus [20]) | Activity (Staphylococcus aureus [21]) | Activity (Staphylococcus aureus [23]) | Activity (Staphylococcus aureus [24]) | Activity (Staphylococcus aureus [35]) | Activity (Staphylococcus aureus [36]) | Activity (Staphylococcus aureus [37])
~5: fold change (FC) (Staphylococcus aureus [15])
99.34%: Activity (Staphylococcus aureus [19])
39.8 µM: Kd [25]
0.5 µg/mL: MIC (Staphylococcus aureus [2]) | MIC (Staphylococcus aureus [3])
~3: fold change (FC) (Staphylococcus aureus [22])
2 µg/mL: MIC (Staphylococcus aureus [1])
~1.9: fold change (FC) (Staphylococcus aureus [9])
